Results on seven compounds are retold here after PMC10108347, “Heterobifunctional Ligase Recruiters Enable pan-Degradation of Inhibitor of Apoptosis Proteins” (Journal of Medicinal Chemistry, 2023).

Data set [1] is described as follows: Log D7.4 measurement by chromatographic (fast-gradient HPLC) method. The note with it: pH 7.4.
Method: The system was calibrated by plotting the retention times of six different drugs (atenolol, metoprolol, labetalol, diltiazem, triphenylene, and permethrin) versus their literature-known log D7.4 in a calibration line (R^2 = 0.99). Subsequently, the mean retention times of the analytes were taken to calculate their log D7.4 values with the aid of the calibration line. At least two independent measurements of each analyte were performed.
The target of data set [2] is cIAP1 (Homo sapiens, UniProt Q13490). The data set can be described thus: Immunoblotting (western blot) quantification of cIAP1 levels in MM.1S cells. The note with it: MM1.S, 16 h. On the technique in general: In western blotting, separated proteins are transferred to a membrane and probed.
Chain of cIAP1 (Q13490 whole entry): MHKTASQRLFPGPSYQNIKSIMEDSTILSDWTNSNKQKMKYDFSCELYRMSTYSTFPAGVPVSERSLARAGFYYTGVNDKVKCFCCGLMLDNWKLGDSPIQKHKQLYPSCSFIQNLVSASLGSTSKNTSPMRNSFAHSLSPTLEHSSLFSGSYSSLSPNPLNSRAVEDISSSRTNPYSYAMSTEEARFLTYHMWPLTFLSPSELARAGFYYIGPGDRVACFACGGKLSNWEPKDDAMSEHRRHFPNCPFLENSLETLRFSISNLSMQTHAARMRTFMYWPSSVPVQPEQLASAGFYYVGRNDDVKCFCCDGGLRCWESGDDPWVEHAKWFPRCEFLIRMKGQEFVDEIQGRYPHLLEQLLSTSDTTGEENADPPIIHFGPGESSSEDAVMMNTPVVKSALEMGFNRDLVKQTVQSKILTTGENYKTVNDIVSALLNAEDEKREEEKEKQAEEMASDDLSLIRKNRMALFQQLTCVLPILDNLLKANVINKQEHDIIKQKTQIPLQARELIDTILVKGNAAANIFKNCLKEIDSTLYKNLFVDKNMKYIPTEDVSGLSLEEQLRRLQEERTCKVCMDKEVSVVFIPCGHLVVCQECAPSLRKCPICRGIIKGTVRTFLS
Method: (§1) To evaluate the capability of our panel of hetero-PROTACs for E3 ligase degradation, VHL19, VHL30, CRBN, cIAP1, cIAP2, and XIAP levels were quantified by western blot analyses. […] SDS-PAGE was performed, and proteins were then transferred onto PVDF membranes. Blotted membranes were blocked with 5% milk in Tris-buffered saline/Tween20 (TBST). Primary antibodies were diluted in 5% BSA in TBST, and incubations were performed overnight at 4 °C. Secondary HRP-conjugated antibodies diluted in 5% milk were incubated for 1 h at room temperature. Detection of proteins on PVDF was carried out using the WesternBright ECL HRP substrate or the WesternBright Sirius HRP substrate (Advansta, San Jose, USA) and imaged with LAS 4000× (Fujifilm). Membranes were subjected to 10 min incubation with Restore Western Blot Stripping Buffer (Thermo Fisher Scientific, Waltham, USA), followed by TBST washes. After brief re-activation with methanol, the membranes were blocked, and further probing of proteins was carried out.
(§2) Quantification of blots was performed using ImageJ software (National Institutes of Health).
Data set [3] concerns the target T1, plasma protein (HSA column) (Homo sapiens, UniProt P02768).
T1 construct: purchased
The data set can be described thus: Plasma protein binding estimated by HPLC on a […] HSA column. Format: in vitro ADME. The following applies: CHIRALPAK HSA column (50 × 3 mm, 5 μm), estimated by an HPLC-based method, read-out: PPB (plasma protein binding) (converted). As for the experimental part:
Plasma protein binding (% PPB) was estimated by correlating the logarithmic retention times of the analytes on a […] HSA 50 × 3 mm, 5 μm column with the literature-known % PPB values (converted into log K values) of the following drugs: warfarin, ketoprofen, budesonide, nizatidine, indomethacin, acetylsalicylic acid, carbamazepine, piroxicam, nicardipine, and cimetidine (for details, see Valko et al.).[67] The samples were dissolved in MeCN/DMSO 9:1 to achieve a final concentration of 0.5 mg/mL. Mobile phase A was 50 mM ammonium acetate adjusted to pH 7.4 with ammonia solution, while mobile phase B was iPrOH. The flow rate was set to 1.0 mL/min, the UV detector was set to 254 nm, and the column temperature was kept at 30 °C. After injecting 2 μL of the sample, a linear gradient from 100% A to 30% iPrOH in 5.4 min was applied. From 5.4 to 18 min, 30% iPrOH was kept, followed by switching back to 100% A in 1.0 min and a re-equilibration time of 6 min. With the aid of the calibration line (R^2 = 0.96), the log K values of new substances were calculated and converted to their % PPB values.

In data set [4] the target is VHL30 (Homo sapiens, UniProt P40337). Put plainly: Immunoblotting (western blot) quantification of VHL30 levels in MM.1S cells. The following applies: MM1.S, 16 h.
Chain of VHL30 (P40337 whole entry): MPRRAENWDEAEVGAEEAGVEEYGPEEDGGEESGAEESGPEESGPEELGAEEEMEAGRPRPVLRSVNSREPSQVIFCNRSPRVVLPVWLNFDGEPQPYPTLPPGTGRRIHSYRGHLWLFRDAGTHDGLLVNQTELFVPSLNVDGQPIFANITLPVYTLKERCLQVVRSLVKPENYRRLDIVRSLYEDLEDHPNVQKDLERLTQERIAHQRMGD
Data set [5] addresses XIAP (Homo sapiens, UniProt P98170). The data set can be described thus: Immunoblotting (western blot) quantification of XIAP levels in MM.1S cells. The following applies: 16 h; for remaining activity at 0.1 µM: MM1.S.
Method: as §1, §2
For data set [6], the target named is cIAP2 (Homo sapiens, UniProt Q13489). Put plainly: Immunoblotting (western blot) quantification of cIAP2 levels in MM.1S cells. The note with it: MM1.S, 16 h.
Chain of cIAP2 (Q13489 whole entry): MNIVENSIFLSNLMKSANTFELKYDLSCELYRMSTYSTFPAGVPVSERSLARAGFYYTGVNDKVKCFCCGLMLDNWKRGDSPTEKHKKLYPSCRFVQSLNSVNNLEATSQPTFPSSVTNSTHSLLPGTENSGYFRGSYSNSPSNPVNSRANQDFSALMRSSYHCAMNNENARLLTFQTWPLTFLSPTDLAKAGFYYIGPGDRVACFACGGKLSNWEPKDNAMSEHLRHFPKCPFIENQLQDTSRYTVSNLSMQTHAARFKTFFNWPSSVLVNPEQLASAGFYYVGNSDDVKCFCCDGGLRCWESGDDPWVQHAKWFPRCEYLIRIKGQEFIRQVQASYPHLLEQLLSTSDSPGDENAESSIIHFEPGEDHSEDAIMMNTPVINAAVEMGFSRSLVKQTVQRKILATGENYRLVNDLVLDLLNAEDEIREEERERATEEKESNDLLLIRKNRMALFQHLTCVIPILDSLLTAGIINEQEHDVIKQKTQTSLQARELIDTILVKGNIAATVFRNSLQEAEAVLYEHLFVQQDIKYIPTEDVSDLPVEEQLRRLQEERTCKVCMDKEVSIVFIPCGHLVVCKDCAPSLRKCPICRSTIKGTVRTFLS
For data set [7], the system named is IAPs (cIAP1, cIAP2, XIAP). The data set can be described thus: Immunoblotting of IAPs in MM.1S cells, overall degradation profile, time course and washout. Type of data set: cell-based. The following applies: 16 h, western blot, concentration (10 nM to 1 μM). As for the experimental part:
Next, we examined the persistence of IAP degradation in MM.1S cells after a single exposure to 1 μM of 9 and subsequent removal of the compound. […] The reliance on CRL2^VHL was assessed with a neddylation inhibitor MLN4924, which blocks the activity of CRLs (Figure S13A).

The mark [8] stands for this setting: read-out: %remaining protein cIAP1.
Setting [9] is: read-out: %remaining protein VHL30.
[10] abbreviates: read-out: %remaining protein XIAP.
Setting [11] is: read-out: %remaining protein cIAP2.
Where [12] appears, read: read-out: %remaining protein cIAP1, MM.1S cells, 16 h treatment at 0.1 μM, normalized to loading control and DMSO.
Setting [13] is: read-out: %remaining protein VHL30, MM.1S cells, 16 h treatment at 0.1 μM, normalized to loading control and DMSO.
Setting [14] is: read-out: %remaining protein XIAP, MM.1S cells, 16 h treatment at 0.1 μM, normalized to loading control and DMSO.
The mark [15] stands for this setting: read-out: %remaining protein cIAP2, MM.1S cells, 16 h treatment at 0.1 μM, normalized to loading control and DMSO.

By chromatographic logD is commonly meant a lipophilicity value derived from retention on a column. Low values mean lower lipophilicity, high ones higher lipophilicity.

Molecules are shown by their SMILES. Entries after “also recorded” stand apart in the source; their conditions may differ. Read-outs that look alike come from different tables or passages of the source. Some results are limits rather than exact numbers.

Chain of XIAP (P98170 whole entry): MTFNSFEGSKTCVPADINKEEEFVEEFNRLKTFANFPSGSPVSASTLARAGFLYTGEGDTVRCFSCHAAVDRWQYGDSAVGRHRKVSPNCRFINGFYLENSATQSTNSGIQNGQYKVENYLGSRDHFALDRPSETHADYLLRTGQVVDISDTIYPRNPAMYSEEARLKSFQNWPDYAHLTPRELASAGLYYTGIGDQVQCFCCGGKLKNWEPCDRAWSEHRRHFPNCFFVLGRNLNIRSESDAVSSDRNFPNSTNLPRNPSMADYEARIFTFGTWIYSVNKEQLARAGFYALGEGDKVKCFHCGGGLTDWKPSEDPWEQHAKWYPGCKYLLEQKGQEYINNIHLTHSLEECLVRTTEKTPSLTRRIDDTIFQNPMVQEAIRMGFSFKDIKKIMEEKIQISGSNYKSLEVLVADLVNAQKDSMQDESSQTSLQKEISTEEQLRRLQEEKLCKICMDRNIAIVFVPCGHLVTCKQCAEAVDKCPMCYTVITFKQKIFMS
T1 sequence (P02768 25-609): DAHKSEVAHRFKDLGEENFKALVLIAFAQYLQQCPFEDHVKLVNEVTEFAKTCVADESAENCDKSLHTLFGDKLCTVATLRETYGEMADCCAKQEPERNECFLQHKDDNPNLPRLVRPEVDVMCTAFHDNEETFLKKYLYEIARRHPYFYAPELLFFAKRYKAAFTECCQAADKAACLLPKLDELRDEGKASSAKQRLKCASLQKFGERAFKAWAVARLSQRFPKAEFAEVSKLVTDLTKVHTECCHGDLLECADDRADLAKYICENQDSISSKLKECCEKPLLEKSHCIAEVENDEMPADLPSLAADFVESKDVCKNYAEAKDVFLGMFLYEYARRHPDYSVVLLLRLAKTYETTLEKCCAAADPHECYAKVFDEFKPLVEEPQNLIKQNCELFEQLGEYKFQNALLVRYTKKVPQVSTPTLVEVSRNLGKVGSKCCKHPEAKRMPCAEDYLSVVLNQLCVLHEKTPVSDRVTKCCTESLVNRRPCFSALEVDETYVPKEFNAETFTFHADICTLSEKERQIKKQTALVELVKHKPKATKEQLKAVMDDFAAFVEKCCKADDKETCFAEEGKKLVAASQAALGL

In data set [1], `CN[C@@H](C)C(=O)N[C@H](C(=O)N1C[C@@H](Oc2cccc(OCCCCCCOCCCCCCOCCOc3cc(-c4scnc4C)ccc3CNC(=O)[C@@H]3C[C@@H](O)CN3C(=O)[C@H](C(C)C)N3Cc4ccccc4C3=O)c2)C[C@H]1C(=O)N[C@@H]1CCCc2ccccc21)C1CCCCC1` [PROTAC 17, (2S,4S)-1-((S)-2-Cyclohexyl-2-((S)-2-(methylamino)propanamido)acetyl)-4-(3-((6-((6-(2-(2-(((2S,4R)-4-hydroxy-1-((S)-3-methyl-2-(1-oxoisoindolin-2-yl)butanoyl)pyrrolidine-2-carboxamido)methyl)-5-(4-methylthiazol-5-yl)phenoxy)ethoxy)hexyl)oxy)hexyl)oxy)phenoxy)-N-((R)-1,2,3,4-tetrahydronaphthalen-1-yl)pyrrolidine-2-carboxamide] registered a chromatographic logD of 5.2. Further, the remaining activity at 0.1 µM in data set [2] (setting [8]) amounted to 3%; in data set [4] (setting [9]) it was 81%; in data set [5] (setting [10]) it was 1%; in data set [6] (setting [11]) it was 31%. In data set [3], the fraction unbound at 0.5 mg/mL is 0.03.
With `CN[C@@H](C)C(=O)N[C@H](C(=O)N1C[C@@H](Oc2cccc(OCCCCCOc3cc(-c4scnc4C)ccc3CNC(=O)[C@@H]3C[C@@H](O)CN3C(=O)[C@H](C(C)C)N3Cc4ccccc4C3=O)c2)C[C@H]1C(=O)N[C@@H]1CCCc2ccccc21)C1CCCCC1` [PROTAC 12, (2S,4S)-1-((S)-2-Cyclohexyl-2-((S)-2-(methylamino)propanamido)acetyl)-4-(3-((5-(2-(((2S,4R)-4-hydroxy-1-((S)-3-methyl-2-(1-oxoisoindolin-2-yl)butanoyl)pyrrolidine-2-carboxamido)methyl)-5-(4-methylthiazol-5-yl)phenoxy)pentyl)oxy)phenoxy)-N-((R)-1,2,3,4-tetrahydronaphthalen-1-yl)pyrrolidine-2-carboxamide], the chromatographic logD in data set [1] was 4. The remaining activity at 0.1 µM was 4% in data set [2] (setting [8]), 55% in data set [4] (setting [9]), 5% in data set [5] (setting [10]) and 29% in data set [6] (setting [11]). Further, the fraction unbound at 0.5 mg/mL in data set [3] is 0.04.
Take `CN[C@@H](C)C(=O)N[C@H](C(=O)N1C[C@@H](Oc2cccc(OCCCCCCCCOc3cc(-c4scnc4C)ccc3CNC(=O)[C@@H]3C[C@@H](O)CN3C(=O)[C@H](C(C)C)N3Cc4ccccc4C3=O)c2)C[C@H]1C(=O)N[C@@H]1CCCc2ccccc21)C1CCCCC1` [PROTAC 13, (2S,4S)-1-((S)-2-Cyclohexyl-2-((S)-2-(methylamino)propanamido)acetyl)-4-(3-((8-(2-(((2S,4R)-4-hydroxy-1-((S)-3-methyl-2-(1-oxoisoindolin-2-yl)butanoyl)pyrrolidine-2-carboxamido)methyl)-5-(4-methylthiazol-5-yl)phenoxy)octyl)oxy)phenoxy)-N-((R)-1,2,3,4-tetrahydronaphthalen-1-yl)pyrrolidine-2-carboxamide]: the chromatographic logD in data set [1] was found to be 4.8. Further, the remaining activity at 0.1 µM in data set [2] (setting [8]) stood at 3%; in data set [4] (setting [9]) it was 53%; in data set [5] (setting [10]), 5%; in data set [6] (setting [11]) it was 15%. For the same compound, in data set [3], the fraction unbound at 0.5 mg/mL was 0.03.
As to `Cc1ncsc1-c1ccc([C@H](C)NC(=O)[C@@H]2C[C@@H](O)CN2C(=O)[C@@H](NC(=O)CCCCOc2cccc(O[C@H]3C[C@@H](C(=O)N[C@@H]4CCCc5ccccc54)N(C(=O)[C@@H](NC(=O)[C@H](C)N(C)C(=O)OC(C)(C)C)C4CCCCC4)C3)c2)C(C)(C)C)cc1` [PROTAC 10d, tert-Butyl ((S)-1-(((S)-1-Cyclohexyl-2-((2S,4S)-4-(3-((5-(((S)-1-((2S,4R)-4-hydroxy-2-(((S)-1-(4-(4-methylthiazol-5-yl)phenyl)ethyl)carbamoyl)pyrrolidin-1-yl)-3,3-dimethyl-1-oxobutan-2-yl)amino)-5-oxopentyl)oxy)phenoxy)-2-(((R)-1,2,3,4-tetrahydronaphthalen-1-yl)carbamoyl)pyrrolidin-1-yl)-2-oxoethyl)amino)-1-oxopropan-2-yl)(methyl)carbamate], the remaining activity at 0.1 µM in data set [2] (setting [12]) is 73%; in data set [4] (setting [13]), over 99%; in data set [5] (setting [14]) it was 87%; in data set [6] (setting [15]), 88%. In addition, the “IAP degradation profile (in words)” value in data set [7] is listed as “inactivated PROTACs”.
Compound `CN[C@@H](C)C(=O)N[C@H](C(=O)N1CCC[C@H]1c1nc(C(=O)c2ccc(F)cc2)cs1)C1CCCCC1` [LCL161, reference compound] had a chromatographic logD in data set [1] of 3.3. Moreover, the fraction unbound at 0.5 mg/mL in data set [3] was 0.12. Moreover, the “XIAP degradation (in words)” value in data set [5] (MM.1S cells, western blot, 0.1 or 1 μM) is reported as “failed to degrade XIAP”.
`CN[C@@H](C)C(=O)N[C@H](C(=O)N1C[C@@H](Oc2cccc(OCCCCCCOCCCCCCOCCCCCCOc3cc(-c4scnc4C)ccc3CNC(=O)[C@@H]3C[C@@H](O)CN3C(=O)[C@H](C(C)C)N3Cc4ccccc4C3=O)c2)C[C@H]1C(=O)N[C@@H]1CCCc2ccccc21)C1CCCCC1` [PROTAC 19, (2S,4S)-1-((S)-2-Cyclohexyl-2-((S)-2-(methylamino)propanamido)acetyl)-4-(3-((6-((6-((6-(2-(((2S,4R)-4-hydroxy-1-((S)-3-methyl-2-(1-oxoisoindolin-2-yl)butanoyl)pyrrolidine-2-carboxamido)methyl)-5-(4-methylthiazol-5-yl)phenoxy)hexyl)oxy)hexyl)oxy)hexyl)oxy)phenoxy)-N-((R)-1,2,3,4-tetrahydronaphthalen-1-yl)pyrrolidine-2-carboxamide]: the chromatographic logD in data set [1] is 6.3. The remaining activity at 0.1 µM was found to be 27% in data set [2] (setting [8]), 95% in data set [4] (setting [9]), 34% in data set [5] (setting [10]) and 84% in data set [6] (setting [11]). The “IAP degradation profile (in words)” value in data set [7] is “dual cIAP1/XIAP degradation at 0.1 μM concentration; also recorded: pan-IAP degradation at 1 μM; also recorded: no degradation at 10 nM”.
For the compound `CN[C@H](C)C(=O)N[C@H](C(=O)N1C[C@@H](Oc2cccc(OCCCCC(=O)N[C@H](C(=O)N3C[C@H](O)C[C@H]3C(=O)N[C@@H](C)c3ccc(-c4scnc4C)cc3)C(C)(C)C)c2)C[C@H]1C(=O)N[C@@H]1CCCc2ccccc21)C1CCCCC1` [PROTAC 10a, (2S,4S)-1-((S)-2-Cyclohexyl-2-((R)-2-(methylamino)propanamido)acetyl)-4-(3-((5-(((S)-1-((2S,4R)-4-hydroxy-2-(((S)-1-(4-(4-methylthiazol-5-yl)phenyl)ethyl)carbamoyl)pyrrolidin-1-yl)-3,3-dimethyl-1-oxobutan-2-yl)amino)-5-oxopentyl)oxy)phenoxy)-N-((R)-1,2,3,4-tetrahydronaphthalen-1-yl)pyrrolidine-2-carboxamide], the remaining activity at 0.1 µM in data set [2] (setting [12]) turned out to be 6%; in data set [4] (setting [13]) it was 41%; in data set [5] (setting [14]), 8%; in data set [6] (setting [15]), 37%. Moreover, in data set [7], the “IAP degradation profile (in words)” value is “pan-IAP”.
